Measured values: patent publication US9914731B2, “Pyrazolo[1,5-a]pyridine derivatives and methods of their use” (Ignyta, Inc., priority 2013, dated 2018)

Columns and labels:
[1] = target: recombinant human baculovirus-expressed AXL (Homo sapiens (Human), UniProt P30530); assay: AXL kinase assay (HTRF KinEASE); assay type: biochemical; settings: average of two or more determinations
[2] = target: recombinant human baculovirus-expressed cMET (Homo sapiens (Human), UniProt P08581); assay: c-MET kinase assay (HTRF KinEASE); assay type: biochemical; settings: average of two or more determinations; read-out: c-MET IC50

| SMILES | IC50 [1] [nM] | IC50 [2] [nM] |
| --- | --- | --- |
| CCOCCn1cc(C(=O)Nc2ccc(Oc3cc(-c4cnn(C)c4)cn4nccc34)c(F)c2)c(=O)n(-c2ccc(F)cc2)c1=O [Example 31, 1-(2-Ethoxy-ethyl)-3-(4-fluoro-phenyl)-2,4-dioxo-1,2,3,4-tetrahydro-pyrimidine-5-carboxylic acid {3-fluoro-4-[6-(1-methyl-1H-pyrazol-4-yl)-pyrazolo[1,5-a]pyridin-4-yloxy]-phenyl}-amide] | < 10 | < 10 |
| CCn1cc(C(=O)Nc2ccc(Oc3cc(-c4cnn(C)c4)cn4nccc34)c(F)c2)c(=O)n(-c2ccc(F)cc2)c1=O [Example 33, 1-Ethyl-3-(4-fluoro-phenyl)-2,4-dioxo-1,2,3,4-tetrahydro-pyrimidine-5-carboxylic acid {3-fluoro-4-[6-(1-methyl-1H-pyrazol-4-yl)-pyrazolo[1,5-a]pyridin-4-yloxy]-phenyl}-amide] | < 10 | < 10 |
| Cc1ccc(C(=O)Nc2ccc(Oc3cc(-c4cnn(C)c4)cn4nccc34)c(F)c2)c(=O)n1-c1ccc(F)cc1 [Example 34, 1-(4-Fluoro-phenyl)-6-methyl-2-oxo-1,2-dihydro-pyridine-3-carboxylic acid {3-fluoro-4-[6-(1-methyl-1H-pyrazol-4-yl)-pyrazolo[1,5-a]pyridin-4-yloxy]-phenyl}-amide] | < 10 | < 10 |
| Cc1c(-c2cc(Oc3ccc(NC(=O)c4cccn(-c5ccc(F)cc5)c4=O)cc3F)c3ccnn3c2)cnn1C [Example 39, 1-(4-Fluoro-phenyl)-2-oxo-1,2-dihydro-pyridine-3-carboxylic acid {4-[6-(1,5-dimethyl-1H-pyrazol-4-yl)-pyrazolo[1,5-a]pyridin-4-yloxy]-3-fluoro-phenyl}-amide] | < 10 | < 10 |
| O=C(Nc1ccc(Oc2cc(-c3cn[nH]c3)cn3nccc23)c(F)c1)c1cccn(-c2ccc(F)cc2)c1=O [Example 42, 1-(4-Fluoro-phenyl)-2-oxo-1,2-dihydro-pyridine-3-carboxylic acid {3-fluoro-4-[6-(1H-pyrazol-4-yl)-pyrazolo[1,5-a]pyridine-4-yloxy]-phenyl}-amide] | < 10 | < 10 |
| Cc1[nH]ncc1-c1cc(Oc2ccc(NC(=O)c3cccn(-c4ccc(F)cc4)c3=O)cc2F)c2ccnn2c1 [Example 44, 1-(4-Fluoro-phenyl)-2-oxo-1,2-dihydro-pyridine-3-carboxylic acid{3-fluoro-4-[6-(5-methyl-1H-pyrazol-4-yl)-pyrazolo[1,5-a]pyridin-4-yloxy]-phenyl}-amide] | < 10 | < 10 |
| Cc1ccc(C(=O)Nc2ccc(Oc3cc(-c4cnco4)cn4nccc34)c(F)c2)c(=O)n1-c1ccc(F)cc1 [Example 51, 1-(4-Fluoro-phenyl)-6-methyl-2-oxo-1,2-dihydro-pyridine-3-carboxylic acid [3-fluoro-4-(6-oxazol-5-yl-pyrazolo[1,5-a]pyridin-4-yloxy)-phenyl]-amide] | < 10 | < 10 |
| CCn1cc(C(=O)Nc2ccc(Oc3cc(-c4cnsc4)cn4nccc34)c(F)c2)c(=O)n(-c2ccc(F)cc2)c1=O [Example 54, 1-Ethyl-3-(4-fluoro-phenyl)-2,4-dioxo-1,2,3,4-tetrahydro-pyrimidine-5-carboxylic acid[3-fluoro-4-(6-isothiazol-4-yl-pyrazolo[1,5-a]pyridin-4-yloxy)-phenyl]-amide] | < 10 | < 10 |
| CC(C)n1cc(C(=O)Nc2ccc(Oc3cc(-c4cnsc4)cn4nccc34)c(F)c2)c(=O)n(-c2ccc(F)cc2)c1=O [Example 55, 3-(4-Fluoro-phenyl)-1-isopropyl-2,4-dioxo-1,2,3,4-tetrahydro-pyrimidine-5-carboxylic acid[3-fluoro-4-(6-isothiazol-4-yl-pyrazolo[1,5-a]pyridin-4-yloxy)-phenyl]-amide] | < 10 | < 10 |
| O=C(Nc1ccc(Oc2cc(N3CCOCC3)cn3nccc23)c(F)c1)c1cccn(-c2ccc(F)cc2)c1=O [Example 56, 1-(4-Fluoro-phenyl)-2-oxo-1,2-dihydro-pyridine-3-carboxylic acid[3-fluoro-4-(6-morpholin-4-yl-pyrazolo[1,5-a]pyridin-4-yloxy)-phenyl]-amide] | < 10 | < 10 |
| Cc1ccc(C(=O)Nc2ccc(Oc3cc(N4CCC(=O)CC4)cn4nccc34)c(F)c2)c(=O)n1-c1ccc(F)cc1 [Example 59, 1-(4-Fluoro-phenyl)-6-methyl-2-oxo-1,2-dihydro-pyridine-3-carboxylic acid {3-fluoro-4-[6-(4-oxo-piperidin-1-yl)-pyrazolo[1,5-a]pyridin-4-yloxy]-phenyl}-amide] | < 10 | 10 to 100 |
| CC(C)n1cc(C(=O)Nc2ccc(Oc3cc(N4CCOCC4)cn4nccc34)c(F)c2)c(=O)n(-c2ccc(F)cc2)c1=O [Example 62, 3-(4-Fluoro-phenyl)-1-isopropyl-2,4-dioxo-1,2,3,4-tetrahydro-pyrimidine-5-carboxylic acid[3-fluoro-4-(6-morpholin-4-yl-pyrazolo[1,5-a]pyridin-4-yloxy)-phenyl]-amide] | < 10 | < 10 |
| O=C(Nc1ccc(Oc2cc(N3CCC(O)CC3)cn3nccc23)c(F)c1)c1cccn(-c2ccc(F)cc2)c1=O [Example 68, 1-(4-Fluoro-phenyl)-2-oxo-1,2-dihydro-pyridine-3-carboxylic acid{3-fluoro-4-[6-(4-hydroxy-piperidin-1-yl)-pyrazolo[1,5-a]pyridin-4-yloxy]-phenyl}-amide] | < 10 | < 10 |

Further lines, results first:

| IC50 [1] [nM] | IC50 [2] [nM] | SMILES |
| --- | --- | --- |
| < 10 | < 10 | Cn1cc(Nc2cc(Oc3ccc(NC(=O)c4cccn(-c5ccc(F)cc5)c4=O)cc3F)c3ccnn3c2)cn1 [Example 79, 1-(4-Fluoro-phenyl)-2-oxo-1,2-dihydro-pyridine-3-carboxylic acid {3-fluoro-4-[6-(1-methyl-1H-pyrazol-4-ylamino)-pyrazolo[1,5-a]pyridin-4-yloxy]-phenyl}-amide] |
| < 10 | < 10 | Cn1cnc(-c2cc(Oc3ccc(NC(=O)c4cccn(-c5ccc(F)cc5)c4=O)cc3F)c3ccnn3c2)c1 [Example 88, 1-(4-Fluoro-phenyl)-2-oxo-1,2-dihydro-pyridine-3-carboxylic acid {3-fluoro-4-[6-(1-methyl-1H-imidazol-4-yl)-pyrazolo[1,5-a]pyridin-4-yloxy]-phenyl}-amide] |
| < 10 | < 10 | Cc1ccc(C(=O)Nc2ccc(Oc3cc(-c4cn(C)cn4)cn4nccc34)c(F)c2)c(=O)n1-c1ccc(F)cc1 [Example 91, 1-(4-Fluoro-phenyl)-6-methyl-2-oxo-1,2-dihydro-pyridine-3-carboxylic acid {3-fluoro-4-[6-(1-methyl-1H-imidazol-4-yl)-pyrazolo[1,5-a]pyridin-4-yloxy]-phenyl}-amide] |
| < 10 | < 10 | CCn1cc(C(=O)Nc2ccc(Oc3cc(-c4cn(C)cn4)cn4nccc34)c(F)c2)c(=O)n(-c2ccc(F)cc2)c1=O [Example 93, 1-Ethyl-3-(4-fluoro-phenyl)-2,4-dioxo-1,2,3,4-tetrahydro-pyrimidine-5-carboxylic acid {3-fluoro-4-[6-(1-methyl-1H-imidazol-4-yl)-pyrazolo[1,5-a]pyridin-4-yloxy]-phenyl}-amide] |
| < 10 | < 10 | CC(C)n1cc(C(=O)Nc2ccc(Oc3cc(-c4cn(C)cn4)cn4nccc34)c(F)c2)c(=O)n(-c2ccc(F)cc2)c1=O [Example 94, 3-(4-Fluoro-phenyl)-1-isopropyl-2,4-dioxo-1,2,3,4-tetrahydro-pyrimidine-5-carboxylic acid {3-fluoro-4-[6-(1-methyl-1H-imidazol-4-yl)-pyrazolo[1,5-a]pyridin-4-yloxy]-phenyl}-amide] |
| < 10 | < 10 | Cn1cnc(-c2cc(Oc3ccc(NC(=O)c4cn(C)c(=O)n(-c5ccc(F)cc5)c4=O)cc3F)c3ccnn3c2)c1 [Example 95, 3-(4-Fluoro-phenyl)-1-methyl-2,4-dioxo-1,2,3,4-tetrahydro-pyrimidine-5-carboxylic acid{3-fluoro-4-[6-(1-methyl-1H-imidazol-4-yl)-pyrazolo[1,5-a]pyridin-4-yloxy]-phenyl}-amide] |
| < 10 | 10 to 100 | Cn1cnc(-c2cc(Oc3ccc(NC(=O)c4cn(CCOCc5ccccc5)c(=O)n(-c5ccc(F)cc5)c4=O)cc3F)c3ccnn3c2)c1 [Example 96, 1-(2-Benzyloxy-ethyl)-3-(4-fluoro-phenyl-)-2,4-dioxo-1,2,3,4-tetrahydro-pyrimidine-5-carboxylic acid{3-fluoro-4-[6-(1-methyl-1H-imidazol-4-yl)-pyrazolo[1,5-a]pyridin-4-yloxy]-phenyl}-amide] |
| < 10 | < 10 | CCn1cc(C(=O)Nc2ccc(Oc3cc(-c4cscn4)cn4nccc34)c(F)c2)c(=O)n(-c2ccc(F)cc2)c1=O [Example 101, 1-Ethyl-3-(4-fluoro-phenyl)-2,4-dioxo-1,2,3,4-tetrahydro-pyrimidine-5-carboxylic acid[3-fluoro-4-(6-thiazol-4-yl-pyrazolo[1,5-a]pyridin-4-yloxy)-phenyl]-amide] |
| < 10 | < 10 | O=C(Nc1ccc(Oc2cc(-c3cscn3)cn3nccc23)c(F)c1)c1cccn(-c2ccc(F)cc2)c1=O [Example 102, 1-(4-Fluoro-phenyl)-2-oxo-1,2-dihydro-pyridine-3-carboxylic acid[3-fluoro-4-(6-thiazol-4-yl-pyrazolo[1,5-a]pyridin-4-yloxy)-phenyl]-amide] |
| < 10 | < 10 | CC(C)n1cc(C(=O)Nc2ccc(Oc3cc(-c4cncs4)cn4nccc34)c(F)c2)c(=O)n(-c2ccc(F)cc2)c1=O [Example 103, 3-(4-Fluoro-phenyl)-1-isopropyl-2,4-dioxo-1,2,3,4-tetrahydro-pyrimidine-5-carboxylic acid[3-fluoro-4-(6-thiazol-5-yl-pyrazolo[1,5-a]pyridin-4-yloxy)-phenyl]-amide] |
